In patent publication US8796001B2, “Metalloenzyme inhibitor compounds” (Viamet Pharmaceuticals, Inc., priority 2011, dated 2014):

Test system: Puccinia recondita tritici = Puccinia triticina (PUCCRT)
Test: Fungicidal activity vs. leaf rust on wheat plants
Type: in vivo
Settings: wheat (Yuma) sprayed at 50 ppm, inoculated the following day, rated 7-9 days later, read-out: Puccinia Rating (% Disease Control @ 50 ppm)
Text: D. Evaluation of Fungicidal Activity vs. Leaf Rust (Causal Agent Puccinia Recondita Tritici=Puccinia Triticina; Bayer Code PUCCRT)
Each pot contained 3-8 seedlings. These plants were sprayed until wet with the formulated test compounds. The compounds were formulated at 50 ppm in 10 vol. % acetone plus 90 vol. % Triton X water (deionized water 99.99 wt %+0.01 wt % Triton X100), giving a “formulated test compound.” Formulated test compounds were applied to plants using a turn table sprayer fitted with two opposing air atomization nozzles which delivered approximately 1500 L/ha of spray volume. On the following day, the leaves were inoculated with an aqueous spore suspension of Puccinia recondita tritici and the plants were kept in high humidity overnight to permit spores to germinate and infect the leaf. The plants were then transferred to a greenhouse until disease developed on untreated control plants. Disease severity was evaluated 7-9 days later, depending on the speed of disease development.
In each case of Table 3, the Puccinia rating scale is as follows: […]

## OC(Cn1cnnn1)(c1ccc(F)cc1F)C(F)(F)c1ccc(OCc2ccc(Cl)cc2F)cn1 (stereo not shown) [Compound 1, 1-(5-(4-Chloro-2-fluorobenzyloxy)pyridin-2-yl)-2-(2,4-difluorophenyl)-1,1-difluoro-3-(1H-tetrazol-1-yl)propan-2-ol]
  pest or weed control at 50 ppm: 80 to 100%

## OC(Cn1cnnn1)(c1ccc(F)cc1F)C(F)(F)c1ccc(OCc2ccc(F)cc2F)cn1 (stereo not shown) [Compound 2, 1-(5-(2,4-Difluorobenzyloxy)pyridin-2-yl)-2-(2,4-difluorophenyl)-1,1-difluoro-3-(1H-tetrazol-1-yl)propan-2-ol]
  pest or weed control at 50 ppm: 80 to 100%

## OC(Cn1cnnn1)(c1ccc(F)cc1F)C(F)(F)c1ccc(OCc2cccc(F)c2)cn1 (stereo not shown) [Compound 3, 2-(2,4-Difluorophenyl)-1,1-difluoro-1-(5-(3-fluorobenzyloxy)pyridin-2-yl)-3-(1H-tetrazol-1-yl)propan-2-ol]
  pest or weed control at 50 ppm: 80 to 100%

## N#Cc1ccc(Oc2ccc(C(F)(F)C(O)(Cn3cnnn3)c3ccc(F)cc3F)nc2)cc1 (stereo not shown) [Compound 5, 4-(6-(2-(2,4-Difluorophenyl)-1,1-difluoro-2-hydroxy-3-(1H-tetrazol-1-yl)propyl)pyridin-3-yloxy)benzonitrile]
  pest or weed control at 50 ppm: 80 to 100%

## OC(Cn1cnnn1)(c1ccc(F)cc1F)C(F)(F)c1ccc(Oc2ccc(F)cc2)cn1 (stereo not shown) [Compound 6, 2-(2,4-Difluorophenyl)-1,1-difluoro-1-(5-(4-fluorophenoxy)pyridin-2-yl)-3-(1H-tetrazol-1-yl)propan-2-ol]
  pest or weed control at 50 ppm: 80 to 100%

## OC(Cn1cnnn1)(c1ccc(F)cc1F)C(F)(F)c1ccc(Oc2ccc(Cl)cc2)cn1 (stereo not shown) [Compound 7, 1-(5-(4-Chlorophenoxy)pyridin-2-yl)-2-(2,4-difluorophenyl)-1,1-difluoro-3-(1H-tetrazol-1-yl)propan-2-ol]
  pest or weed control at 50 ppm: 80 to 100%

## COc1ccc(C(F)(F)C(O)(Cn2cnnn2)c2ccc(F)cc2F)nc1 (stereo not shown) [Compound 8, 2-(2,4-Difluorophenyl)-1,1-difluoro-1-(5-methoxypyridin-2-yl)-3-(1H-tetrazol-1-yl)propan-2-ol]
  pest or weed control at 50 ppm: 80 to 100%

## N#Cc1ccc(COc2ccc(C(F)(F)C(O)(Cn3cnnn3)c3ccc(F)cc3F)nc2)cc1 (stereo not shown) [Compound 9, 4-(((6-(2-(2,4-Difluorophenyl)-1,1-difluoro-2-hydroxy-3-(1H-tetrazol-1-yl)propyl)pyridin-3-yl)oxy)methyl)benzonitrile]
  pest or weed control at 50 ppm: 80 to 100%

## N#Cc1ccc(COc2ccc(C(F)(F)C(O)(Cn3cnnn3)c3ccc(F)cc3F)nc2)cc1F (stereo not shown) [Compound 10, 4-(((6-(2-(2,4-Difluorophenyl)-1,1-difluoro-2-hydroxy-3-(1H-tetrazol-1-yl)propyl)pyridin-3-yl)oxy)methyl)-2-fluorobenzonitrile]
  pest or weed control at 50 ppm: 80 to 100%

## OC(Cn1cnnn1)(c1ccc(F)cc1F)C(F)(F)c1ccc(Oc2ccccc2)cn1 (stereo not shown) [Compound 11, 2-(2,4-Difluorophenyl)-1,1-difluoro-1-(5-phenoxypyridin-2-yl)-3-(1H-tetrazol-1-yl)propan-2-ol]
  pest or weed control at 50 ppm: 80 to 100%

## OC(Cn1cnnn1)(c1ccc(F)cc1F)C(F)(F)c1ccc(OCC(F)(F)F)cn1 (stereo not shown) [Compound 12, 2-(2,4-Difluorophenyl)-1,1-difluoro-3-(1H-tetrazol-1-yl)-1-(5-(2,2,2-trifluoroethoxy)pyridin-2-yl)propan-2-ol]
  pest or weed control at 50 ppm: 80 to 100%

## N#Cc1ccc(CSc2ccc(C(F)(F)C(O)(Cn3cnnn3)c3ccc(F)cc3F)nc2)c(F)c1 (stereo not shown) [Compound 15, 4-(((6-(2-(2,4-Difluorophenyl)-1,1-difluoro-2-hydroxy-3-(1H-tetrazol-1-yl)propyl)pyridin-3-yl)thio)methyl)-3-fluorobenzonitrile]
  pest or weed control at 50 ppm: 40 to 59%

## N#Cc1ccc(Oc2ccc(C(F)(F)C(O)(Cn3cnnn3)c3ccc(F)cc3F)nc2)cc1F (stereo not shown) [Compound 17, 4-((6-(2-(2,4-Difluorophenyl)-1,1-difluoro-2-hydroxy-3-(1H-tetrazol-1-yl)propyl)pyridin-3-yl)oxy)-2-fluorobenzonitrile]
  pest or weed control at 50 ppm: 80 to 100%

## OC(Cn1cnnn1)(c1ccc(F)cc1F)C(F)(F)c1ccc(OCc2ccc(OC(F)(F)F)cc2)cn1 (stereo not shown) [Compound 21, 2-(2,4-Difluorophenyl)-1,1-difluoro-3-(1H-tetrazol-1-yl)-1-(5-((4-(trifluoromethoxy)benzyl)oxy)pyridin-2-yl)propan-2-ol]
  pest or weed control at 50 ppm: 80 to 100%

## OC(Cn1cnnn1)(c1ccc(F)cc1F)C(F)(F)c1ccc(OCc2ccc(C(F)(F)F)cc2)cn1 (stereo not shown) [Compound 22, 2-(2,4-Difluorophenyl)-1,1-difluoro-3-(1H-tetrazol-1-yl)-1-(5-((4-(trifluoromethyl)benzyl)oxy)pyridin-2-yl)propan-2-ol]
  pest or weed control at 50 ppm: 80 to 100%

## OC(Cn1cnnn1)(c1ccc(F)cc1F)C(F)(F)c1ccc(OCc2cccc(F)c2F)cn1 (stereo not shown) [Compound 23, 1-(5-((2,3-Difluorobenzyl)oxy)pyridin-2-yl)-2-(2,4-difluorophenyl)-1,1-difluoro-3-(1H-tetrazol-1-yl)propan-2-ol]
  pest or weed control at 50 ppm: 80 to 100%

## OC(Cn1cnnn1)(c1ccc(F)cc1F)C(F)(F)c1ccc(OCc2ccc(C(F)(F)F)cc2F)cn1 (stereo not shown) [Compound 24, 2-(2,4-Difluorophenyl)-1,1-difluoro-1-(5-((2-fluoro-4-(trifluoromethyl)benzyl)oxy)pyridin-2-yl)-3-(1H-tetrazol-1-yl)propan-2-ol]
  pest or weed control at 50 ppm: 80 to 100%

## OC(Cn1cnnn1)(c1ccc(F)cc1F)C(F)(F)c1ccc(OCc2cccc(C(F)(F)F)c2)cn1 (stereo not shown) [Compound 26, 2-(2,4-Difluorophenyl)-1,1-difluoro-3-(1H-tetrazol-1-yl)-1-(5-((3-(trifluoromethyl)benzyl)oxy)pyridin-2-yl)propan-2-ol]
  pest or weed control at 50 ppm: 80 to 100%

## OC(Cn1cnnn1)(c1ccc(F)cc1F)C(F)(F)c1ccc(OCc2ccc(Cl)c(F)c2)cn1 (stereo not shown) [Compound 27, 1-(5-((4-Chloro-3-fluorobenzyl)oxy)pyridin-2-yl)-2-(2,4-difluorophenyl)-1,1-difluoro-3-(1H-tetrazol-1-yl)propan-2-ol]
  pest or weed control at 50 ppm: 80 to 100%

## OC(Cn1cnnn1)(c1ccc(F)cc1F)C(F)(F)c1ccc(OCc2ccc(F)c(F)c2)cn1 (stereo not shown) [Compound 28, 1-(5-((3,4-Difluorobenzyl)oxy)pyridin-2-yl)-2-(2,4-difluorophenyl)-1,1-difluoro-3-(1H-tetrazol-1-yl)propan-2-ol]
  pest or weed control at 50 ppm: 80 to 100%

## COc1cccc(COc2ccc(C(F)(F)C(O)(Cn3cnnn3)c3ccc(F)cc3F)nc2)c1 (stereo not shown) [Compound 34, 2-(2,4-Difluorophenyl)-1,1-difluoro-1-(5-((3-methoxybenzyl)oxy)pyridin-2-yl)-3-(1H-tetrazol-1-yl)propan-2-ol]
  pest or weed control at 50 ppm: 80 to 100%

## OC(Cn1cnnn1)(c1ccc(F)cc1F)C(F)(F)c1ccc(OCc2cc(F)cc(F)c2)cn1 (stereo not shown) [Compound 35, 1-(5-((3,5-Difluorobenzyl)oxy)pyridin-2-yl)-2-(2,4-difluorophenyl)-1,1-difluoro-3-(1H-tetrazol-1-yl)propan-2-ol]
  pest or weed control at 50 ppm: 80 to 100%

## OC(Cn1cnnn1)(c1ccc(F)cc1F)C(F)(F)c1ccc(OCc2ccccn2)cn1 (stereo not shown) [Compound 37, 2-(2,4-Difluorophenyl)-1,1-difluoro-1-(5-(pyridin-2-ylmethoxy)pyridin-2-yl)-3-(1H-tetrazol-1-yl)propan-2-ol]
  pest or weed control at 50 ppm: 80 to 100%

## OC(Cn1cnnn1)(c1ccc(F)cc1F)C(F)(F)c1ccc(OCC2CC2)cn1 (stereo not shown) [Compound 39, 1-(5-(Cyclopropylmethoxy)pyridin-2-yl)-2-(2,4-difluorophenyl)-1,1-difluoro-3-(1H-tetrazol-1-yl)propan-2-ol]
  pest or weed control at 50 ppm: 80 to 100%

## COc1ccc(COc2ccc(C(F)(F)C(O)(Cn3cnnn3)c3ccc(F)cc3F)nc2)cc1 (stereo not shown) [Compound 41, 2-(2,4-Difluorophenyl)-1,1-difluoro-1-(5-((4-methoxybenzyl)oxy)pyridin-2-yl)-3-(1H-tetrazol-1-yl)propan-2-ol]
  pest or weed control at 50 ppm: 80 to 100%

## CC(C)Oc1ccc(C(F)(F)C(O)(Cn2cnnn2)c2ccc(F)cc2F)nc1 (stereo not shown) [Compound 42, 2-(2,4-Difluorophenyl)-1,1-difluoro-1-(5-isopropoxypyridin-2-yl)-3-(1H-tetrazol-1-yl)propan-2-ol]
  pest or weed control at 50 ppm: 80 to 100%

## CC(C)COc1ccc(C(F)(F)C(O)(Cn2cnnn2)c2ccc(F)cc2F)nc1 (stereo not shown) [Compound 43, 2-(2,4-Difluorophenyl)-1,1-difluoro-1-(5-isobutoxypyridin-2-yl)-3-(1H-tetrazol-1-yl)propan-2-ol]
  pest or weed control at 50 ppm: 80 to 100%

## OC(Cn1cncn1)(c1ccc(F)cc1F)C(F)(F)c1ccc(OCc2cccc(F)c2F)cn1 (stereo not shown) [Compound 45, 1-(5-((2,3-Difluorobenzyl)oxy)pyridin-2-yl)-2-(2,4-difluorophenyl)-1,1-difluoro-3-(1H-1,2,4-triazol-1-yl)propan-2-ol]
  pest or weed control at 50 ppm: 80 to 100%

## OC(Cn1cnnn1)(c1ccc(F)cc1F)C(F)(F)c1ccc(OCc2ccccc2F)cn1 (stereo not shown) [Compound 46, 2-(2,4-Difluorophenyl)-1,1-difluoro-1-(5-((2-fluorobenzyl)oxy)pyridin-2-yl)-3-(1H-tetrazol-1-yl)propan-2-ol]
  pest or weed control at 50 ppm: 80 to 100%

## CC(Oc1ccc(C(F)(F)C(O)(Cn2cnnn2)c2ccc(F)cc2F)nc1)C(F)(F)F (stereo not shown) [Compound 47, 2-(2,4-Difluorophenyl)-1,1-difluoro-3-(1H-tetrazol-1-yl)-1-(5-((1,1,1-trifluoropropan-2-yl)oxy)pyridin-2-yl)propan-2-ol]
  pest or weed control at 50 ppm: 80 to 100%

## OC(Cn1cnnn1)(c1ccc(F)cc1F)C(F)(F)c1ccc(OCc2cccs2)cn1 (stereo not shown) [Compound 49, 2-(2,4-Difluorophenyl)-1,1-difluoro-3-(1H-tetrazol-1-yl)-1-(5-(thiophen-2-ylmethoxy)pyridin-2-yl)propan-2-ol]
  pest or weed control at 50 ppm: 80 to 100%
